Legend:
[1] = test system: IL-6 in A549 cells stimulated with IL-1β; assay: A549 Cell Assay to Measure Inflammation Markers (inhibition of IL-1β-induced IL-6); assay type: cell-based; settings: intrinsic activity, Emax class ranges; for Emax: Homo sapiens, A549, A549 Cell Assay to Measure Inflammation Markers
In short: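 Compound pre-incubated with A549 cells 1 h at 37 °C, then stimulated with IL-1β (1 ng/mL final, 0.1% DMSO). Supernatant IL-6 quantified by MSD immunoassay after a further incubation. IC50 and Emax derived.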

[2] = target: T1, Glucocorticoid Receptor (GR) (Homo sapiens, UniProt P04150); assay: GR Fluorescence Polarization Assay (PolarScreen Glucocorticoid Receptor Competitor Assay, Red); settings: IC50 class ranges, read-out: GR binding
T1 construct: purchased Invitrogen P2893
T1 sequence (P04150 1-777): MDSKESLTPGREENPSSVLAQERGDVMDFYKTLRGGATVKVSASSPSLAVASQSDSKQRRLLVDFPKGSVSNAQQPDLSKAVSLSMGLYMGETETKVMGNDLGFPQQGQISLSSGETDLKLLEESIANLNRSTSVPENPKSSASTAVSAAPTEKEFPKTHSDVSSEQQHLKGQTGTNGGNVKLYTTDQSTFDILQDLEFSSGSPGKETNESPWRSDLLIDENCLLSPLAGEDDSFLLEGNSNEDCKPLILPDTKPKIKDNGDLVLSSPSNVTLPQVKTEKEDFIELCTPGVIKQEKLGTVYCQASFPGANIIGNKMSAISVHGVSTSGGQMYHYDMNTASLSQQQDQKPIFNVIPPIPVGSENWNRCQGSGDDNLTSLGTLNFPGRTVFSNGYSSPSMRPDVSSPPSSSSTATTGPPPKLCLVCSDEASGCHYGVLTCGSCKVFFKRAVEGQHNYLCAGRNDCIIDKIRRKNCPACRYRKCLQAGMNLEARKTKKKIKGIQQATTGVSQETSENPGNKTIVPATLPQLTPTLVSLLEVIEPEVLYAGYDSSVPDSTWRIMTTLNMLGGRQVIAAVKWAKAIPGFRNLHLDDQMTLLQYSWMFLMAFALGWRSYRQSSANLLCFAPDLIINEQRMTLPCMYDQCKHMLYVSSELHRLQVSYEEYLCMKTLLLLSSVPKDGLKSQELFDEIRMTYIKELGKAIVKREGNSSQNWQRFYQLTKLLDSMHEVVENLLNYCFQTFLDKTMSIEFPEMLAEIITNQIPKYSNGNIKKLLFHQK
In short: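 Competitive fluorescence-polarization assay using a red fluorescent glucocorticoid tracer with human GR in kit buffer. Compounds serially diluted 1:4 in DMSO, incubated with tracer and GR overnight at 4° C, then polarization read.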

SMILES	Emax [1] [%]	IC50 [2] [nM]	A549 Emax ([1]; A549 Cell Assay to Measure Inflammation Markers)
CCn1nc(-c2ccccn2)c2c1N[C@@H](C)CS[C@H]2c1ccc(CCC(C)(C)O)cc1C (single isomer, unassigned) [M.39, 4-(4-(1-ethyl-7-methyl-3-(pyridin-2-yl)-4,6,7,8-tetrahydro-1H-pyrazolo[3,4-e][1,4]thiazepin-4-yl)-3-methylphenyl)-2-methylbutan-2-ol]	> 70	< 100	–
Cc1cc(Br)ccc1C1SCCNc2c1c(-c1ccccn1)nn2C (centres unmarked)	> 50	< 100	–
Cc1cc(C#CCCO)ccc1[C@@H]1SC[C@@H](C)Nc2c1c(-c1ccccn1)nn2C (single isomer, unassigned) [M.55, 4-(4-(1,7-dimethyl-3-(pyridin-2-yl)-4,6,7,8-tetrahydro-1H-pyrazolo[3,4-e][1,4]thiazepin-4-yl)-3-methylphenyl)but-3-yn-1-ol]	< 50	< 100	–
Cc1cc(C(=O)Nc2cccnc2)ccc1C1SC(C)(C)CNc2c1c(C)nn2C (centres unmarked) [H.1, 3-methyl-N-(3-pyridyl)-4-(1,3,6,6-tetramethyl-7,8-dihydro-4H-pyrazolo[3,4-e][1,4]thiazepin-4-yl)benzamide]	< 50	1000 to 10000	–
CCn1nc(-c2ccccn2)c2c1NCCSC2c1ccc(C#N)cc1C (centres unmarked) [G.10, 3-methyl-4-(1-ethyl-3-(pyridin-2-yl)-4,6,7,8-tetrahydro-1H-pyrazolo[3,4-e][1,4]thiazepin-4-yl)benzonitrile]	> 70	< 100	–
Cn1nc(-c2ccccn2)c2c1NCCS(=O)(=O)C2c1ccc(Cl)cc1Cl (centres unmarked) [L.3]	< 50	100 to 1000	–
Cn1nc(-c2ccccn2)c2c1NCCS[C@@H]2c1ccc(Br)cc1Cl (single isomer, unassigned) [M.1, 4-(4-bromo-2-chlorophenyl)-1-methyl-3-(pyridin-2-yl)-4,6,7,8-tetrahydro-1H-pyrazolo[3,4-e][1,4]thiazepine]	< 50	100 to 1000	–
Cn1nc(-c2ccccn2)c2c1NCCSC2c1ccc(C(=O)O)cc1Cl (centres unmarked)	< 50	100 to 1000	–
Cc1cc(Cl)cnc1C1SCCNc2c1c(-c1ccccn1)nn2C (centres unmarked) [D.21]	< 50	100 to 1000	–
Cn1nc([C@@H]2CCCN2)c2c1NCCSC2c1ccc(Cl)cc1Cl (mixture of isomers)	< 50	> 10000	–
Cc1cc(Cl)ccc1[C@@H]1S[C@@H](CCO)CNc2c1c(-c1ccccn1)nn2C (single isomer, unassigned) [M.13, 2-(4-(4-chloro-2-methylphenyl)-1-methyl-3-(pyridin-2-yl)-4,6,7,8-tetrahydro-1H-pyrazolo[3,4-e][1,4]thiazepin-6-yl)ethanol]	< 50	< 100	–
Cc1cc(Cl)ccc1[C@H]1SC(C)(C)[C@@H](c2ccccc2)Nc2c1c(C)nn2C (racemic) [K.2]	< 50	1000 to 10000	–
Cc1cc(Cl)ccc1[C@@H]1SC[C@@H](C)Nc2c1c(-c1ccccn1)nn2C	> 70	< 100	–
CC(C)Cc1nn(C)c2c1C(c1ccc(Cl)cc1Cl)SCCN2 (centres unmarked) [D.92]	< 50	< 100	–
Cc1cc(Cl)ccc1C1SCCNc2c1c(-c1ccn[nH]1)nn2C (centres unmarked)	< 50	100 to 1000	–
CCn1nc(-c2ccccn2)c2c1N[C@@H](C)CS[C@H]2c1ccc(CCCO)cc1C (single isomer, unassigned) [M.36, 3-(4-(1-ethyl-7-methyl-3-(pyridin-2-yl)-4,6,7,8-tetrahydro-1H-pyrazolo[3,4-e][1,4]thiazepin-4-yl)-3-methylphenyl)propan-1-ol]	> 60	< 100	–
Cc1cc(Br)ccc1C1SC(C)CNc2c1c(C1CC1)nn2C (centres unmarked) [D.52]	–	< 100	D (a compound with Emax<50%)
Cc1cc(Cl)ccc1[C@H]1SC[C@@H](C)Nc2c1c(C)nn2C (racemic) [K.7]	< 50	< 100	–
Cc1cc(OCc2cccnc2)ccc1C1SCCNc2c1c(-c1ccccn1)nn2C (centres unmarked)	< 50	100 to 1000	–
